We go through 14 compounds from patent US9309187B2, “EP2 receptor agonists” (TAKEDA GMBH, priority 2012, dated 2016).

One assay deals with T1, human EP2 receptor (Homo sapiens, UniProt P43116).
T1 construct: purchased Millipore
The assay is described as follows: EP2 binding assay (PGE2 displacement). The protocol:
Method for Measuring Inhibition of PGE2 Binding to the Human Prostanoid Receptor EP2:
Human EP2 receptor equilibrium competition binding assays were performed according to Abramovitz et al. (M. Abramovitz et al. 2000, Biochimica et Biophysica Acta 1483: 285-293) in a final incubation volume of 100 microL in 50 milliM Bis-Tris, pH6.0 in 96-well plates. Radiolabelled Prostaglandin E2 (PGE2) (1 nanoM [^3H]-PGE2 purchased from Perkin Elmer) was added to the assay as competitive ligand. Test compounds stored as Dimethylsulfoxide (DMSO) stock solutions were added to the assay in serial dilutions in assay buffer while keeping the final DMSO concentration equal in each sample. The reaction was initiated by addition of membrane proteins harbouring human EP2 receptor (ChemiSCREEN™ membrane preparation recombinant human EP2 prostanoid receptor that was purchased by Millipore). Total binding was determined in the absence of test compound or PGE2 and non-specific binding was determined in the presence of 1 microM PGE2. Incubations were conducted for 60 minutes at room temperature until equilibrium was reached and terminated by filtration through GF/B filter (Perkin Elmer) prewetted with 0.3% PEI solution. Unbound radiolabelled PGE2 was removed by 8 wash cycles with the same buffer under ice-cold conditions and the filters containing the residual radioactivity were dried for 60 minutes at 60° C. In order to measure the filter bound radioactivity, 40 microL microscint (scintillation liquid) was added to each filter and the chemiluminescence was determined by TopCount-NTX™. The specific binding was calculated by subtracting non-specific binding from each sample. Percent inhibition by test compounds was calculated based on specific binding without test compound. Each sample was measured in triplicates per experiment and for the calculation of the pIC50 at least 2 independent experiments were performed. Determination of half maximal inhibiting concentration (IC50) was performed with GraphPad Prism Software.
The numbers of the compounds correspond to the examples numbers.
EP2 Binding Assay (PGE2 Displacement): pIC50 Values

Assay [1] deals with T2, human prostanoid receptor EP2 (Homo sapiens, UniProt P43116).
T2 construct: expressed in transfected cells; host or cells: CHO-K1 (CHOp6CreLuc-huEP2)
T2 sequence (P43116 whole entry): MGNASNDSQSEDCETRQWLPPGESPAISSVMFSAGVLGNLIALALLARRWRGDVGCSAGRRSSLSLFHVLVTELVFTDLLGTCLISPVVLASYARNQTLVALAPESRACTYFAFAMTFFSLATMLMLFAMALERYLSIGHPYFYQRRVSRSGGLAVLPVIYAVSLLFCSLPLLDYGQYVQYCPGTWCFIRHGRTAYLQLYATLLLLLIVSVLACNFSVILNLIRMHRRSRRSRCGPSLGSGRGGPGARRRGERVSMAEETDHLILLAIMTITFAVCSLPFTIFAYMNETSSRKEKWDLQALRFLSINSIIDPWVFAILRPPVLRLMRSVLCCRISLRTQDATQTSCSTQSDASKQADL
The assay is described as follows: EP2 cAMP release assay in CHOp6CreLuc-huEP2 cells (CRE-luciferase readout). The format is cell-based. The procedure: Method for Measuring cAMP Release in Human EP2 Stably Transfectant Cells:
The potency and efficacy of EP2 agonists have been determined via measuring cAMP release in stably transfectant CHO-K1 cell expressing the human prostanoid receptor EP2 and luciferase enzyme regulated via a 6 times CRE (cAMP response element) containing transcriptional promoter. CHOp6CreLuc-huEP2 cells were seeded into 384-well plate (1000 cells per well) in DMEM/F12 (Dulbecco's Modified Eagle Medium/Nutrient Mixture F12) cell culture medium containing 2% FCS (Fetal Calf Serum) and 500 μg/ml G418 24 hours prior to the experiment. Test compound was added as serial dilutions while keeping the final DMSO concentration constant in each well. […] Cells were incubated together with test compound or butaprost for 4 hours at 37° C. The cAMP release was determined indirectly via luciferase activity that directly correlated to the amount of luciferase enzyme expressed in response to cAMP regulated promoter activity. The luciferase activity was determined by addition of luciferin containing buffer and subsequent quantification of resulting luminescence. Each sample was measured in quadruplicates per experiment and half-maximal effective concentration (EC50) and relative maximal effect compared to butaprost was determined from 3 independent experiments with GraphPad Prism Software. A compound that achieved over 80% of the maximal effect of butaprost was considered as full agonist.
For the following compounds the potency was determined in the cAMP release assay applying human EP2 transfectant CHOp6CreLuc-huEP2 cells. […] The numbers of the compounds correspond to the examples numbers.
EP2 cAMP Release Assay: pEC50

Assay [2] relates to TNFalpha release in human whole blood stimulated with LPS. The assay is described as follows: Inhibition of LPS induced TNFalpha release in human whole blood. The format is cell-based. The note with it: 1 microg/mL LPS, 4 hours, reported as range bins, read-out: Inhibition of LPS induced TNFalpha release in human whole blood pIC30 (-log IC30). The procedure:
Method for Measuring the Inhibition of TNFalpha Release in Human Whole Blood Stimulated with LPS:
Assay was performed with some modifications of the method described by Hatzelmann and Schudt (Hatzelmann and Schudt (2001) JPET 297: 267-279) and the protocol “drawing of venous blood from healthy volunteers for in vitro studies” was approved by the ethics committee of the Landesärztekammer Baden Württemberg in Stuttgart.
Heparinised venous blood was equilibrated to assay conditions for 1 hour at room temperature upon blood drawing. Immediately thereafter, 200 microL whole blood per sample were pre-incubated with 25 microL of a serial dilution of test compound or piclamilast as positive control for 30 min. at 37° C. After pre-incubation blood samples were stimulated by the addition of 25 microL lipopolysaccharide (LPS) (Sigma, Aldrich) per sample resulting in a final concentration of 1 microg/mL LPS and a final volume of 250 microL. Cells were incubated for 4 hours at 37° C. TNFalpha levels were determined from plasma that was obtained by a centrifugation step and transferring the supernatant to a new 96-well plate which was again centrifuged and clear plasma supernatant was used for the measurement of TNFalpha via alphaLISA Technology according to manufacture protocol (Perkin Elmer).
Whole blood samples that were not stimulated with LPS were used as control and set for 100% inhibition. Whole blood samples that were stimulated with LPS and solvent instead of test compound were set as 0% inhibition. Percent inhibition was calculated based on these controls for each sample and since most compounds achieved saturating maximal inhibition of 60% a pIC30 value was calculated with GraphPad Prism Software.
For the following compounds the inhibitory values of TNFalpha release [determined as −log IC30=pIC30] in the human whole blood assay between 4.5 and 4.9, between 5.0 and 5.9 and between 6.0 and 6.9 have been determined. The numbers of the compounds correspond to the examples numbers.
Inhibition of LPS Induced TNFalpha Release Assay in Human Whole Blood: pIC30

Assay [3] concerns TNFalpha release in human peripheral blood mononuclear cells (PBMC) stimulated with LPS. The assay is described as follows: Inhibition of LPS induced TNFalpha release in human PBMCs. The format is cell-based. Conditions: 1 ng/mL LPS, 24 hours, reported as range bins, read-out: Inhibition of LPS induced TNFalpha release in human PBMCs pIC30 (-log IC30). The procedure: Method for Measuring the Inhibition of TNFalpha Release in Human Peripheral Blood MononuClear Cells (PBMC) Stimulated with LPS:
Assay was performed with some modifications of the method described by Hatzelmann and Schudt (Hatzelmann and Schudt 2001, J. Pharmacol. Exp. Therapeutics 297: 267-279) and the protocol “drawing of venous blood from healthy volunteers for in vitro studies” was approved by the ethics committee of the Landesärztekammer Baden Württemberg in Stuttgart. Peripheral blood mononuclear cells (PBMCs) were isolated from venous blood with the anticoagulant citrate from healthy donors according to standard protocols using Ficoll. The cell layer of PBMCs were washed twice with phosphate buffer solution and equilibrated at room temperature for 60 minutes. 500,000 PBMCs in 180 microL RPMI1640 cell medium supplemented with 10% FCS, NEAA (Non-essential-amino-acids), L-Glutamine and Sodium Pyruvate per sample were pre-incubated with 10 microL of a serial dilution of test compound or piclamilast as positive control for 60 min. at 37° C. After pre-incubation blood samples were stimulated by the addition of 10 microL LPS (Sigma, Aldrich) per sample resulting in a final concentration of 1 ng/mL LPS and a final volume of 200 microL. Cells were incubated for 24 hours at 37° C. TNFalpha levels were determined from cell supernatant that was obtained by a centrifugation step and transferring the supernatant to a new 96-well plate. Content of TNFalpha was determined via alphaLISA Technology according to manufacture protocol (Perkin Elmer).
PBMC samples that were not stimulated with LPS were used as control and set for 100% inhibition. PBMC samples that were stimulated with LPS and solvent instead of test compound were set as 0% inhibition. Percent inhibition was calculated based on these controls for each sample and since most compounds achieved saturating maximal inhibition of 60% a pIC30 value was calculated with GraphPad Prism Software.
For the following compounds the inhibitory values of TNFalpha release [determined as −log IC30=pIC30] in human PBMCs between 5.0 and 5.9, between 6.0 and 6.9, between 7.0 and 7.9 and between 8.0 and 9.0 have been determined. The numbers of the compounds correspond to the examples numbers.
Inhibition of LPS Induced TNFalpha Release Assay in Human PBMCs: pIC30

[4] abbreviates: recombinant human EP2 membranes, 1 nanoM [3H]-PGE2, reported as range bins, read-out: EP2 binding (PGE2 displacement) pIC50 (-log IC50) (converted).
The mark [5] stands for this setting: CHOp6CreLuc-huEP2 cells, 4 hours at 37° C., reported as range bins, read-out: EP2 cAMP release assay pEC50 (-log EC50) (converted).

The IC50 is the point on the concentration scale where inhibition reaches its midpoint. As a reminder, the EC50 is the concentration at which the effect is half-maximal. The IC30 is the point of the concentration-response curve where the effect stands at 30%.

Read-outs that look alike come from different tables or passages of the source.

T1 sequence (P43116 whole entry): as above

Take `O=C(O)COc1cccc(NC(=O)c2cc(-c3ccccc3)cc3ccccc23)c1` [Example 4]: the IC50 on human EP2 receptor (setting [4]) was 1.26 to 10 nM. In addition, in assay [1] (setting [5]), the EC50 was 0.126 to 1 nM. Also, the values for the IC30 in assay [2] and in assay [3] were 12.6 to 31.6 µM and 0.126 to 1 µM, respectively.
As to `O=C(O)COc1ccc(F)c(NC(=O)c2cc(-c3ccccc3)cc3ccccc23)c1` [Example 5, (4-fluoro-3-{[(3-phenylnaphthalen-1-yl)carbonyl]amino}phenoxy)acetic acid], the IC50 at human EP2 receptor (setting [4]) was 1.26 to 10 nM. The EC50 in assay [1] (setting [5]) is 0.00631 to 0.1 nM.
For `O=C(O)COc1ccc(Cl)c(NC(=O)c2cc(-c3ccccc3)cc3ccccc23)c1` [Example 6], the IC50 at human EP2 receptor (setting [4]) is 12.6 to 100 nM. For the same compound, in assay [1] (setting [5]), the half-maximal effective concentration (EC50) was 0.00631 to 0.1 nM.
Consider `O=C(O)CCc1cccc(NC(=O)c2cc(-c3ccccc3)cc3ccccc23)c1` [Example 7, 3-(3-{[(3-phenylnaphthalen-1-yl)carbonyl]amino}phenyl) propanoic acid], for which the IC50 on human EP2 receptor (setting [4]) is 12.6 to 100 nM. The half-maximal effective concentration (EC50) in assay [1] (setting [5]) is 0.126 to 1 nM. For the same compound, the IC30 in assay [3] lay within 0.126 to 1 µM.
Taken in the same sequence, the figures for `O=C(O)CCc1ccc(F)c(NC(=O)c2cc(-c3ccccc3)cc3ccccc23)c1` [Example 8, 3-(4-fluoro-3-{[(3-phenylnaphthalen-1-yl)carbonyl]amino}phenyl) propanoic acid] were 12.6 to 100 nM, 0.126 to 1 nM and 0.126 to 1 µM.
Turning to `O=C(O)/C=C/c1ccc(F)c(NC(=O)c2cc(-c3ccc(F)cc3)cc3ccccc23)c1` [Example 11, (2E)-3-{3-[({3-[4-fluorophenyl]naphthalen-1-yl}carbonyl)amino]-4fluorophenyl}prop-2-enoic acid], the IC50 on human EP2 receptor (setting [4]) was 1.26 to 10 nM. Also, the EC50 in assay [1] (setting [5]) was 0.126 to 1 nM.
Turning to `O=C(O)/C=C/c1ccc(F)c(NC(=O)c2cc(-c3cccc(CO)c3)cc3ccccc23)c1` [Example 14, (2E)-3-{4-fluoro-3-[({3-[3-(hydroxymethyl)phenyl]naphthalen-1-yl}carbonyl)amino]phenyl}prop-2-enoic acid], at human EP2 receptor (setting [4]), the IC50 is 1.26 to 10 nM. Moreover, the EC50 in assay [1] (setting [5]) was 0.126 to 1 nM. The IC30 in assay [3] was in the range of 0.126 to 1 µM.
For the compound `O=C(O)CCc1ccc(F)c(NC(=O)c2cc(-c3ccccc3F)cc3ccccc23)c1` [Example 16, 3-[4-fluoro-3-({[3-(2-fluorophenyl)naphthalen-1yl]carbonyl}amino)phenyl]-propanoicacid], the half-inhibitory concentration (IC50) on human EP2 receptor (setting [4]) is 12.6 to 100 nM. For the same compound, the EC50 in assay [1] (setting [5]) is 1.26 to 12.6 nM. Moreover, the IC30 in assay [3] lay within 0.126 to 1 µM.
`O=C(O)CCc1ccc(F)c(NC(=O)c2cc(-c3cccc(F)c3)cc3ccccc23)c1` [Example 17, 3-[4-fluoro-3-({[3-(3-fluorophenyl)naphthalen-1-yl]carbonyl}amino)phenyl]propanoic acid]: the 50% inhibitory concentration (IC50) at human EP2 receptor (setting [4]) is 1.26 to 10 nM. In addition, in assay [1] (setting [5]), the EC50 was 0.126 to 1 nM. The 30% effect concentration (IC30) in assay [3] was 0.126 to 1 µM.
Consider `CC(=O)NCc1cccc(-c2cc(C(=O)Nc3cc(/C=C/C(=O)O)ccc3F)c3ccccc3c2)c1` [Example 18], for which, in assay [1] (setting [5]), the EC50 was 1.26 to 12.6 nM. Besides, the IC30 in assay [3] is 1.26 to 10 µM.
For `O=C(O)/C=C/c1cccc(NC(=O)c2cc(-c3cccc(N4CCNCC4)c3)cc3ccccc23)c1` [Example 20, (2E)-3-{3[({3-[3-(piperazin-1-yl)phenyl]naphthalen-1-yl}carbonyl)amino]phenyl}prop-2-enoic acid], the IC50 on human EP2 receptor (setting [4]) was 126 to 2000 nM. The EC50 in assay [1] (setting [5]) is 1.26 to 12.6 nM.
Take `O=C(O)/C=C/c1cccc(NC(=O)c2cc(N3CCOCC3)cc3ccccc23)c1` [Example 21, (2E)-3-[3-({[3-(morpholin-4-yl)naphthalen-1-yl]carbonyl}amino)phenyl]prop-2-enoic acid]: the IC50 on human EP2 receptor (setting [4]) was 126 to 2000 nM. Further, in assay [1] (setting [5]), the half-maximal effective concentration (EC50) is 1.26 to 12.6 nM. Also, in assay [3], the IC30 is 0.126 to 1 µM.
In turn, `CN(C)C(=O)Oc1cccc(-c2cc(C(=O)Nc3cccc(/C=C/C(=O)O)c3)c3ccccc3c2)c1` [Example 23, (2E)-3-(3-{[(3-{3-[(dimethylcarbamoyl)oxy]phenyl}naphthalen-1-yl)carbonyl]amino}phenyl)prop-2-enoic acid] returned an IC50 on human EP2 receptor of 126 to 2000 nM. Moreover, the concentration giving a half-maximal response (EC50) in assay [1] was 1.26 to 12.6 nM. The 30% effect concentration (IC30) in assay [3] is 0.126 to 1 µM.
As for `CCCC1([C@H](O)C/C=C/[C@H]2[C@H](O)CC(=O)[C@@H]2CCCCCCC(=O)OC)CCC1` [butaprost, reference compound], in assay [1] (CHOp6CreLuc-huEP2 cells), the “maximal effect of positive control relative to PGE2” value is “same maximal effect compared to the maximal effect of PGE2”.
